We go through 16 molecules from ChEMBL document CHEMBL5150046, “Discovery of a Series of 5-Amide-1H-pyrazole-3-carboxyl Derivatives as Potent P2Y14R Antagonists with Anti-Inflammatory Characters” (J Med Chem, 2022).

The structures appear in SMILES notation. pIC50: −log10 of the molar value. Converted amounts (≈) assume the structure as drawn. The source made the active and inactive calls. The calls are words filed in the database; no cut-off is given here. Where only a bound is given, the exact number is not on record here.

Data set [1] addresses T1, P2Y purinoceptor 14 (Homo sapiens) (UniProt Q15391).
T1 sequence (whole entry): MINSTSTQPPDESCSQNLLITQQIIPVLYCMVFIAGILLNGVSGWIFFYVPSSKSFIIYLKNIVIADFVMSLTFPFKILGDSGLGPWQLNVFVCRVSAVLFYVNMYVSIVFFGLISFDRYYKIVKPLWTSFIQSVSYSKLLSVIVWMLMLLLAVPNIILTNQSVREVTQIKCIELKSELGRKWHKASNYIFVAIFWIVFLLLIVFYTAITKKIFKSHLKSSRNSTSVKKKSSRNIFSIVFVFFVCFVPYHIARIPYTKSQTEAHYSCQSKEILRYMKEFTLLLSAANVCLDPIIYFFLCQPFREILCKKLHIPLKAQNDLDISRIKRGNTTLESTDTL

Data set [2] has as its target T2, P2Y purinoceptor 14 (Homo sapiens, UniProt Q15391).
T2 sequence (Q15391 whole entry): T1 sequence (whole entry)
The experiment in a line: Antagonist activity at P2Y14R (unknown origin) expressed in HEK293 cells assessed as inhibition of forskolin-stimulated cAMP accumulation incubated in presence of IBMX by cAMP-glo assay. The class given is functional, cell-based. For orientation: Changes in cAMP serve as a functional read-out for many G protein-coupled receptors.

Data set [3] relates to Mus musculus. The data set can be described thus: Antiinflammatory activity in ICR mouse model of LPS-induced acute peritonitis assessed as reduction in IL-1beta level in peritoneal fluid at 5 mg/kg, ip pretreated for 1 hr followed by LPS stimulation and measured after 6 hrs by qRT-PCR analysis. It is filed as functional, organism-based. As to conditions: time 7.0 hrs. On the technique in general: In qPCR the cycle at which signal appears reflects the starting amount.

Data set [4] has as its system Mus musculus. The data set can be described thus: Antiinflammatory activity in ICR mouse model of LPS-induced acute peritonitis assessed as reduction in TNF-alpha level in peritoneal fluid at 5 mg/kg, ip pretreated for 1 hr followed by LPS stimulation and measured after 6 hrs by qRT-PCR analysis. It is filed as functional, organism-based. The conditions noted are these: time 7.0 hrs.

The test system of data set [5] is Mus musculus. The data set can be described thus: Antiinflammatory activity in ICR mouse model of LPS-induced acute peritonitis assessed as reduction in IL-6 level in peritoneal fluid at 5 mg/kg, ip pretreated for 1 hr followed by LPS stimulation and measured after 6 hrs by qRT-PCR analysis. The class given is functional, organism-based. The conditions noted are these: time 7.0 hrs.

The nature of data set [6]: Aqueous solubility of the compound in PBS at pH 7.4 incubated for 24 hrs by UV-3000 absorption spectrometry analysis. The class given is physicochemical. The conditions noted are these: PBS, pH 7.4.
The nature of data set [7]: Metabolic stability in human liver microsomes assessed as half life at 2 ug/ml preincubated for 5 mins followed by NADPH addition and measured upto 45 mins by LC-MS/MS analysis. It is filed as ADME, Microsome. The conditions noted are these: dose 2 µg/ml, time < 50 min. (In general: Microsomes from liver hold many membrane-bound enzymes, among them those of drug oxidation.)

The nature of data set [8]: Inhibition of caspase-1 mediated pyroptosis in LPS/ATP induced PMA-differentiated human THP-1 cells assessed as late apoptotic cells at 10 uM pretreated for 24 hrs followed by LPS addition for 3 hrs and further incubated for 1 hr with ATP by caspase-1/PI staining based flow cytometry analysis (reference value: 16.3%). The class given is functional. Details: scale not given: the % may be the effect or the level left. As to conditions: time 28 hrs.

Data set [9] in a line: Aqueous solubility of the compound in double distilled water at pH 7 incubated for 24 hrs by UV-3000 absorption spectrometry analysis. As to conditions: double distilled water, pH 7. It is filed as physicochemical.
A short description of data set [10]: Aqueous solubility of the compound in simulated gastric fluid without pepsin at pH 1.2 incubated for 24 hrs by UV-3000 absorption spectrometry analysis. It is filed as physicochemical.
Data set [11] is described as follows: Oral bioavailability in Sprague-Dawley rat at 10 mg/kg measured for 24 hrs. As to conditions: in vivo. The class given is ADME, organism-based.
Data set [12] in a line: Inhibition of caspase-1 mediated pyroptosis in LPS/ATP induced PMA-differentiated human THP-1 cells assessed as live cells at 10 uM pretreated for 24 hrs followed by LPS addition for 3 hrs and further incubated for 1 hr with ATP by caspase-1/PI staining based flow cytometry analysis (reference value: 43.3%). It is filed as functional. Details: scale not given: the % may be the effect or the level left. As to conditions: time 28 hrs.

Data set [13] has as its target P2Y purinoceptor 12 (Homo sapiens, UniProt Q9H244). The data set can be described thus: Antagonist activity at P2Y12R (unknown origin) expressed in CHO cells assessed as inhibition of forskolin-stimulated cAMP accumulation incubated for 15 mins in presence of IBMX by chromatography. It is filed as functional, cell-based.
Data set [14] in a line: Inhibition of caspase-1 mediated pyroptosis in LPS/ATP induced PMA-differentiated human THP-1 cells assessed as dead cells at 10 uM pretreated for 24 hrs followed by LPS addition for 3 hrs and further incubated for 1 hr with ATP by caspase-1/PI staining based flow cytometry analysis (reference value: 22.5%). The class given is functional. Details: scale not given: the % may be the effect or the level left. As to conditions: time 28 hrs.

Data set [15] is described as follows: Aqueous solubility of the compound in simulated intestinal fluid without trypsin at pH 6.8 incubated for 24 hrs by UV-3000 absorption spectrometry analysis. The class given is physicochemical.
Data set [16] in a line: Inhibition of caspase-1 mediated pyroptosis in LPS/ATP induced PMA-differentiated human THP-1 cells assessed as early apoptotic cells at 10 uM pretreated for 24 hrs followed by LPS addition for 3 hrs and further incubated for 1 hr with ATP by caspase-1/PI staining based flow cytometry analysis (reference value: 17.9%). It is filed as functional. On the set-up: scale not given: the % may be the effect or the level left. The conditions noted are these: time 28 hrs.

[17] abbreviates: HEK293, filed as antagonist, dose 100.0 nM.

Chain of P2Y purinoceptor 12 (Q9H244 whole entry): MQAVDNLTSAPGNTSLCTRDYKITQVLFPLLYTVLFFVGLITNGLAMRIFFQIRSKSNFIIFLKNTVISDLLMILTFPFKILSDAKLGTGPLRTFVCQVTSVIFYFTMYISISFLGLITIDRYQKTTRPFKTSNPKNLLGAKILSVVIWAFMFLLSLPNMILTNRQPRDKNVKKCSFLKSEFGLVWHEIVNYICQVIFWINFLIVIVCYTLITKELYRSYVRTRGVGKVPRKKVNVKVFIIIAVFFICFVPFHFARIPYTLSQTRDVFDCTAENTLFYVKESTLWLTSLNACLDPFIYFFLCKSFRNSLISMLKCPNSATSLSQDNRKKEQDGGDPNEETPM

A word on the inhibition: it is the drop in the measured response relative to a control, in per cent. `O=C(O)c1cc(NC(=O)c2ccco2)n(Cc2ccc(F)cc2)n1`: the inhibition in data set [1] (setting [17]) turned out to be 76%.
The term pIC50 denotes the negative decadic logarithm of the IC50, by convention in mol/L. Take `Cc1ccc(C(=O)Nc2cc(C(=O)O)nn2Cc2ccccc2C(F)(F)F)cc1`: the negative-log IC50 (pIC50) in data set [2] is 8.32. The molecule also registered an inhibition in data set [1] (setting [17]) of 93%.
The molecule `O=C(Nc1cc(C(=O)O)nn1Cc1ccc(F)cc1)c1ccc(C(F)(F)F)cc1` showed an inhibition in data set [1] (HEK293, dose 100.0 nM) of 31.4%.
As for `C[C@@H]1C[C@H]2[C@@H]3CCC4=CC(=O)C=C[C@]4(C)[C@@]3(F)[C@@H](O)C[C@]2(C)[C@@]1(O)C(=O)CO`, the outcome in data set [3], in [4] and in data set [5] was Active.
Turning to `O=C(Nc1cc(C(=O)O)nn1Cc1ccc(F)cc1)c1ccncc1`, in [1] (HEK293, dose 100.0 nM), the inhibition was found to be 32.5%.
As to `CC(=O)c1ccc(Cn2nc(C(=O)O)cc2NC(=O)c2ccc(C)cc2)cc1`, in data set [2], the negative logarithm of the IC50 (pIC50) is 7.17. Further, the inhibition in data set [1] (setting [17]) is 66.3%.
In data set [1] (HEK293, dose 100.0 nM), `N#Cc1ccc(C(=O)Nc2cc(C(=O)O)nn2Cc2ccc(F)cc2)cc1` came in with an inhibition of 22.4%.
Molecule `O=C(Nc1cc(C(=O)O)nn1Cc1ccc(F)cc1)c1ccccc1` registered an inhibition in data set [1] (setting [17]) of 77.4%.
On the same count and under the same terms, to `CCOC(=O)c1cc(NC(=O)c2ccc(C)cc2)n(Cc2ccc(F)cc2)n1` belongs 68.3%.
As to `CCc1ccc(C(=O)Nc2cc(C(=O)O)nn2Cc2ccc(F)cc2)cc1`, the pIC50 in data set [2] was 8.33. This molecule yielded an inhibition in [1] (setting [17]) of 97.9%.
Regarding `Cc1ccc(C(=O)Nc2cc(C(=O)O)nn2Cc2cc(F)c(F)c(F)c2)cc1`, in [2], the pIC50 was 8.40. This molecule also registered an inhibition in data set [1] (setting [17]) of 90.3%.
Consider `Cc1ccc(CC(=O)Nc2cc(C(=O)O)nn2Cc2ccc(F)cc2)cc1`, for which the inhibition in data set [1] (HEK293, dose 100.0 nM) came out at 28.5%.
On the same count and under the same terms, the same measure for `CC(C)(C)c1ccc(C(=O)Nc2cc(C(=O)O)nn2Cc2ccc(F)cc2)cc1`: 3.05%.
Turning to `Cc1ccc(C(=O)Nc2cc(CC(=O)O)nn2Cc2ccc(F)cc2)cc1`, the pIC50 in data set [2] is 7.85. The molecule further showed an inhibition in [1] (setting [17]) of 98.3%.
As usually defined, the solubility is how much of the substance goes into solution per volume. By half-life is commonly meant how long it takes for the measured level to halve. The bioavailability is the share of a dose that reaches the circulation, judged against a reference dose that is usually intravenous. Consider `O=C(O)c1cc(-c2ccc(C3CCNCC3)cc2)c2ccc(-c3ccc(C(F)(F)F)cc3)cc2c1` [PPTN], for which the solubility at 24 h in [6] was less than 5 µg/mL; in data set [9], less than 5 µg/mL; in data set [10] (simulated gastric fluid without pepsin, pH 1.2), less than 5 µg/mL; in data set [15] (simulated intestinal fluid without trypsin, pH 6.8), less than 5 µg/mL. Besides, the half-life at 2 ug/ml in data set [7] amounted to 46 min. Moreover, the Activity in [8] was 4.33%; in [12], 79.8%; in [14], 11.2%; in [16] it was 4.68%. This molecule also came in with a bioavailability in [11] of 5%. In [13], the pIC50 is less than 5.00.
As to `Cc1ccc(C(=O)Nc2cc(C(=O)O)cc(-c3ccoc3)c2)cc1`, the solubility at 24 h came out at 878 µg/mL (≈ 2730 µM) in data set [6] and 77.6 µg/mL (≈ 241 µM) in [9]. Further, the solubility in [10] (simulated gi fluid, pH 1.2, 24 h) is 69.1 µg/mL (≈ 215 µM); in [15] (simulated gi fluid, pH 6.8, 24 h), 471.1 µg/mL (≈ 1470 µM).
